Measured values taken from publication PMC12615518, “Discovery of CRBN-recruiting PROTAC degraders of the METTL3-METTL14 complex” (Medicinal Chemistry Research, 2025).

Assays:
METTL14 = target: T1, METTL14 (Homo sapiens, UniProt Q9HCE5); experiment: Immunoblotting (Western blot) degradation of METTL14 in MV4-11 cells; format: cell-based; settings: MV4-11 cells, 24 h; for % reduction in MV4-11 cells, 0.3 µM, METTL14 / % reduction in MV4-11 cells, 1.0 µM, METTL14 / % degradation in MV4-11 cells, 0.3 µM, METTL14 / % degradation in MV4-11 cells, 1.0 µM, METTL14: immunoblotting; for % reduction in MV4-11 cells, 0.3 µM, METTL14 / % reduction in MV4-11 cells, 1.0 µM, METTL14: nd = no degradation
T1 construct: Following treatment, total cellular proteins were extracted using RIPA buffer; endogenous in cells; host or cells: MV4-11 (MV4.11) human AML cells, ATCC
Procedure: (§1) All cell lines were maintained under standard conditions in a humidified atmosphere at 37 °C with 5% CO₂.
(§2) Western Blot Analysis: Following treatment, total cellular proteins were extracted using RIPA buffer (Auragene, Changsha, China). […] After washing, membranes were incubated with horseradish peroxidase (HRP)-conjugated secondary antibodies (anti-rabbit or anti-mouse IgG; 1:5000) for 2 hours at room temperature. Protein bands were visualized using an enhanced chemiluminescence (ECL) detection kit (Amersham Pharmacia), following the manufacturer's protocol. Band intensities were quantified using ImageJ software and normalized to ACTIN as a loading control. Data was analyzed using GraphPad Prism 9.

METTL3 = METTL3 (Homo sapiens, UniProt Q86U44); experiment: Immunoblotting (Western blot) degradation of METTL3 in MV4-11 cells; format: cell-based; design: Following treatment, total cellular proteins were extracted using RIPA buffer; endogenous in cells; host or cells: MV4-11 (MV4.11) human AML cells, ATCC; settings: MV4-11 cells, 24 h; for % reduction in MV4-11 cells, 0.3 µM, METTL3 / % reduction in MV4-11 cells, 1.0 µM, METTL3 / % degradation in MV4-11 cells, 0.3 µM, METTL3 / % degradation in MV4-11 cells, 1.0 µM, METTL3: immunoblotting; for % reduction in MV4-11 cells, 0.3 µM, METTL3 / % reduction in MV4-11 cells, 1.0 µM, METTL3: nd = no degradation
Procedure: as §1, §2

T1 sequence (Q9HCE5 whole entry): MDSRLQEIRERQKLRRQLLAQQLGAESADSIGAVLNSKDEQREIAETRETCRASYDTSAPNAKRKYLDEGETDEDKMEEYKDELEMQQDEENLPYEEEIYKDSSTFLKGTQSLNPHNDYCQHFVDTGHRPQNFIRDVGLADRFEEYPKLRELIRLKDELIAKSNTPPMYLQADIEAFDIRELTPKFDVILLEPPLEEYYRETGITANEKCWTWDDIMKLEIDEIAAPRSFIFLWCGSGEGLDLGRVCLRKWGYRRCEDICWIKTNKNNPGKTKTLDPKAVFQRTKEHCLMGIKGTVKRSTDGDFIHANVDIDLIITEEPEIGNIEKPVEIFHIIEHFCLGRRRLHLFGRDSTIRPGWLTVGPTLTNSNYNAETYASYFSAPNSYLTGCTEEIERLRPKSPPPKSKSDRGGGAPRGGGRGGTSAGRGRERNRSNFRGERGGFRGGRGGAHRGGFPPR
T1 sequence (Q86U44 2-580 partner): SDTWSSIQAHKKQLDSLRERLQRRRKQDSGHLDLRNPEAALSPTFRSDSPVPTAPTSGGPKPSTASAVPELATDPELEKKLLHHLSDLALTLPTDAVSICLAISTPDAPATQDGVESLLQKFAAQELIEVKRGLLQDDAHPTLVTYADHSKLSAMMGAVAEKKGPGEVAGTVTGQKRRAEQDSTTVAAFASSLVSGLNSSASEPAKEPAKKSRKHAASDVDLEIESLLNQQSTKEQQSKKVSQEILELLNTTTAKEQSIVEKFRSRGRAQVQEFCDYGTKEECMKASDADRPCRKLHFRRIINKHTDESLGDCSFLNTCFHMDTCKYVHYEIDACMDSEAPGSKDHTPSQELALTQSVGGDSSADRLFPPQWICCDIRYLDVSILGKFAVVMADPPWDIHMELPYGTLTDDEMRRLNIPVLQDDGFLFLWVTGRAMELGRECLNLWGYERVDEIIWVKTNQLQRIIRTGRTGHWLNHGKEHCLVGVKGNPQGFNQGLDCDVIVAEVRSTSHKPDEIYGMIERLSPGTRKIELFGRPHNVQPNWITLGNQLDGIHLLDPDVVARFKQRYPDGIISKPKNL
METTL3, sequence (Q86U44 2-580 limits assumed): as the sequence (Q86U44 2-580 partner) above
METTL3, sequence (Q9HCE5 whole entry partner): as the sequence (Q9HCE5 whole entry) above

Row | % reduction in MV4-11 cells, 0.3 µM, METTL14 (METTL14) [%] | % reduction in MV4-11 cells, 1.0 µM, METTL14 (METTL14) [%] | % reduction in MV4-11 cells, 0.3 µM, METTL3 (METTL3) [%] | % reduction in MV4-11 cells, 1.0 µM, METTL3 (METTL3) [%] | % degradation in MV4-11 cells, 0.3 µM, METTL14 (METTL14) [%] | % degradation in MV4-11 cells, 1.0 µM, METTL14 (METTL14) [%] | % degradation in MV4-11 cells, 0.3 µM, METTL3 (METTL3) [%] | % degradation in MV4-11 cells, 1.0 µM, METTL3 (METTL3) [%] | Compound | further results
1 | 51 | 67 | 52 | 68 |  |  |  |  | CC1(C)CCN(Cc2cc(F)c(N3CC(=O)NC4(CCN(c5cc(NCCCCCCCC(=O)N6CCN(c7ccc8c(c7)C(=O)N(C7CCC(=O)NC7=O)C8=O)CC6)ncn5)CC4)C3)cc2F)CC1 (stereo not shown) [Compound 4d, 5-(4-(8-((6-(4-(4-((4,4-dimethylpiperidin-1-yl)methyl)-2,5-difluorophenyl)-2-oxo-1,4,9-triazaspiro[5.5]undecan-9-yl)pyrimidin-4-yl)amino)octanoyl)piperazin-1-yl)-2-(2,6-dioxopiperidin-3-yl)isoindoline-1,3-dione] | 
2 | 46 | 61 | 43 | 62 |  |  |  |  | CC1(C)CCN(Cc2cc(F)c(N3CC(=O)NC4(CCN(c5cc(NCCCCCCC(=O)N6CCN(c7ccc8c(c7)C(=O)N(C7CCC(=O)NC7=O)C8=O)CC6)ncn5)CC4)C3)cc2F)CC1 (stereo not shown) [Compound 4c, 5-(4-(7-((6-(4-(4-((4,4-dimethylpiperidin-1-yl)methyl)-2,5-difluorophenyl)-2-oxo-1,4,9-triazaspiro[5.5]undecan-9-yl)pyrimidin-4-yl)amino)heptanoyl)piperazin-1-yl)-2-(2,6-dioxopiperidin-3-yl)isoindoline-1,3-dione] | 
3 | 39 | 53 | 38 | 52 |  |  |  |  | CC1(C)CCN(Cc2cc(F)c(N3CC(=O)NC4(CCN(c5cc(NCCCCCCCCC(=O)N6CCN(c7ccc8c(c7)C(=O)N(C7CCC(=O)NC7=O)C8=O)CC6)ncn5)CC4)C3)cc2F)CC1 (stereo not shown) [Compound 4e, 5-(4-(9-((6-(4-(4-((4,4-dimethylpiperidin-1-yl)methyl)-2,5-difluorophenyl)-2-oxo-1,4,9-triazaspiro[5.5]undecan-9-yl)pyrimidin-4-yl)amino)nonanoyl)piperazin-1-yl)-2-(2,6-dioxopiperidin-3-yl)isoindoline-1,3-dione] | 
4 |  |  |  |  | 8 | 21 | 33 | 52 | CNc1cc(N2CCC3(CC2)CN(c2cc(F)c(CN4CCC(C)(C(=O)NCCCCNc5cccc6c5C(=O)N(C5CCC(=O)NC5=O)C6=O)CC4)cc2F)CC(=O)N3)ncn1 (stereo not shown) [Compound 5a, 1-(2,5-difluoro-4-(9-(6-(methylamino)pyrimidin-4-yl)-2-oxo-1,4,9-triazaspiro[5.5]undecan-4-yl)benzyl)-N-(4-((2-(2,6-dioxopiperidin-3-yl)-1,3-dioxoisoindolin-4-yl)amino)butyl)-4-methylpiperidine-4-carboxamide] | 
5 | 54 | 72 | 52 | 73 |  |  |  |  | CC1(C)CCN(Cc2cc(F)c(N3CC(=O)NC4(CCN(c5cc(NCCCCCCCCC(=O)N6CCN(c7ccc8c(c7)CN(C7CCC(=O)NC7=O)C8=O)CC6)ncn5)CC4)C3)cc2F)CC1 (stereo not shown) [Compound 4i, 3-(5-(4-(9-((6-(4-(4-((4,4-dimethylpiperidin-1-yl)methyl)-2,5-difluorophenyl)-2-oxo-1,4,9-triazaspiro[5.5]undecan-9-yl)pyrimidin-4-yl)amino)nonanoyl)piperazin-1-yl)-1-oxoisoindolin-2-yl)piperidine-2,6-dione] | 
6 | 40 | 64 | 46 | 69 |  |  |  |  | CC1(C)CCN(Cc2cc(F)c(N3CC(=O)NC4(CCN(c5cc(NCCCCCCCC(=O)N6CCN(c7ccc8c(c7)CN(C7CCC(=O)NC7=O)C8=O)CC6)ncn5)CC4)C3)cc2F)CC1 (stereo not shown) [Compound 4h, 3-(5-(4-(8-((6-(4-(4-((4,4-dimethylpiperidin-1-yl)methyl)-2,5-difluorophenyl)-2-oxo-1,4,9-triazaspiro[5.5]undecan-9-yl)pyrimidin-4-yl)amino)octanoyl)piperazin-1-yl)-1-oxoisoindolin-2-yl)piperidine-2,6-dione] | 
7 | 36 | 58 | 45 | 56 |  |  |  |  | CC1(C)CCN(Cc2cc(F)c(N3CC(=O)NC4(CCN(c5cc(NCCCCCC(=O)N6CCN(c7ccc8c(c7)C(=O)N(C7CCC(=O)NC7=O)C8=O)CC6)ncn5)CC4)C3)cc2F)CC1 (stereo not shown) [Compound 4b, 5-(4-(6-((6-(4-(4-((4,4-dimethylpiperidin-1-yl)methyl)-2,5-difluorophenyl)-2-oxo-1,4,9-triazaspiro[5.5]undecan-9-yl)pyrimidin-4-yl)amino)hexanoyl)piperazin-1-yl)-2-(2,6-dioxopiperidin-3-yl)isoindoline-1,3-dione] | 
8 | 6 | 27 | 14 | 47 |  |  |  |  | CC1(C)CCN(Cc2cc(F)c(N3CC(=O)NC4(CCN(c5cc(NCCCCC(=O)N6CCN(c7ccc8c(c7)C(=O)N(C7CCC(=O)NC7=O)C8=O)CC6)ncn5)CC4)C3)cc2F)CC1 (stereo not shown) [Compound 4a, 5-(4-(5-((6-(4-(4-((4,4-dimethylpiperidin-1-yl)methyl)-2,5-difluorophenyl)-2-oxo-1,4,9-triazaspiro[5.5]undecan-9-yl)pyrimidin-4-yl)amino)pentanoyl)piperazin-1-yl)-2-(2,6-dioxopiperidin-3-yl)isoindoline-1,3-dione] | 
9 |  |  |  |  | 34 | 21 | 26 | 3 | CNc1cc(N2CCC3(CC2)CN(c2cc(F)c(CN4CCC(C)(C(=O)NCCCCCCCCCCNc5cccc6c5C(=O)N(C5CCC(=O)NC5=O)C6=O)CC4)cc2F)CC(=O)N3)ncn1 (stereo not shown) [Compound 5d, 1-(2,5-difluoro-4-(9-(6-(methylamino)pyrimidin-4-yl)-2-oxo-1,4,9-triazaspiro[5.5]undecan-4-yl)benzyl)-N-(10-((2-(2,6-dioxopiperidin-3-yl)-1,3-dioxoisoindolin-4-yl)amino)decyl)-4-methylpiperidine-4-carboxamide] | 
10 |  |  |  |  | 20 | 24 | 50 | 54 | CNc1cc(N2CCC3(CC2)CN(c2cc(F)c(CN4CCC(C)(C(=O)NCCCCCCCCNc5cccc6c5C(=O)N(C5CCC(=O)NC5=O)C6=O)CC4)cc2F)CC(=O)N3)ncn1 (stereo not shown) [Compound 5c, 1-(2,5-difluoro-4-(9-(6-(methylamino)pyrimidin-4-yl)-2-oxo-1,4,9-triazaspiro[5.5]undecan-4-yl)benzyl)-N-(8-((2-(2,6-dioxopiperidin-3-yl)-1,3-dioxoisoindolin-4-yl)amino)octyl)-4-methylpiperidine-4-carboxamide] | 
11 |  |  |  |  | 20 | 21 | 55 | 56 | CNc1cc(N2CCC3(CC2)CN(c2cc(F)c(CN4CCC(C)(C(=O)NCCCCCCNc5cccc6c5C(=O)N(C5CCC(=O)NC5=O)C6=O)CC4)cc2F)CC(=O)N3)ncn1 (stereo not shown) [Compound 5b, 1-(2,5-difluoro-4-(9-(6-(methylamino)pyrimidin-4-yl)-2-oxo-1,4,9-triazaspiro[5.5]undecan-4-yl)benzyl)-N-(6-((2-(2,6-dioxopiperidin-3-yl)-1,3-dioxoisoindolin-4-yl)amino)hexyl)-4-methylpiperidine-4-carboxamide] | 
12 | 0 | 34 | 9 | 25 |  |  |  |  | CC1(C)CCN(Cc2cc(F)c(N3CC(=O)NC4(CCN(c5cc(NCCCCCCC(=O)N6CCN(c7ccc8c(c7)CN(C7CCC(=O)NC7=O)C8=O)CC6)ncn5)CC4)C3)cc2F)CC1 (stereo not shown) [Compound 4g, 3-(5-(4-(7-((6-(4-(4-((4,4-dimethylpiperidin-1-yl)methyl)-2,5-difluorophenyl)-2-oxo-1,4,9-triazaspiro[5.5]undecan-9-yl)pyrimidin-4-yl)amino)heptanoyl)piperazin-1-yl)-1-oxoisoindolin-2-yl)piperidine-2,6-dione] | 
13 |  |  |  |  |  |  |  |  | CN1C(=O)CCC(N2Cc3cc(N4CCN(C(=O)CCCCCCCCCNc5cc(N6CCC7(CC6)CN(c6cc(F)c(CN8CCC(C)(C)CC8)cc6F)CC(=O)N7)ncn5)CC4)ccc3C2=O)C1=O (stereo not shown) [Compound 4k, 3-(5-(4-(10-((6-(4-(4-((4,4-dimethylpiperidin-1-yl)methyl)-2,5-difluorophenyl)-2-oxo-1,4,9-triazaspiro[5.5]undecan-9-yl)pyrimidin-4-yl)amino)decanoyl)piperazin-1-yl)-1-oxoisoindolin-2-yl)-1-methylpiperidine-2,6-dione] | degradation of METTL14 at 1 µM (in words) (METTL14; 1 µM, Fig. 4A right): not degraded; degradation of METTL14 (in words) (METTL14; Table 1 screening): did not induce degradation; degradation of METTL3 at 1 µM (in words) (METTL3; 1 µM, Fig. 4A right): not degraded; degradation of METTL3 (in words) (METTL3; Table 1 screening): did not induce degradation
